system: MOLM-13 cells; test: MOLM-13 Cell Proliferation Assay (indicator of DHODH inhibition); format: cell-based; settings: Homo sapiens, 72 Hours of culture, CellTiter-Glo, no uridine
How it was run: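 Proliferation readout via CellTiter-Glo luminescence after 72 h compound treatment (37 °C, 5% CO2, 0.5% DMSO) of MOLM-13 cells seeded at 10^4 per well in RPMI 1640/10% FBS, used as a DHODH-inhibition indicator since these cells rely on de novo pyrimidine synthesis.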

Compound | IC50
CC(C)c1ccc(C2c3[nH]c4cc(F)c(Cl)cc4c3CCN2c2ncc(Cl)cn2)cc1 (stereo not shown) [Compound 57, 6-chloro-2-(5-chloropyrimidin-2-yl)-7-fluoro-1-[4-(propan-2-yl)phenyl]-2,3,4,9-tetrahydro-1H-pyrido[3,4-b]indole] | 19.9 nM
Cc1cnc(N2CCc3c([nH]c4cc(F)c(Cl)cc34)C2c2ccc(C)c(F)c2F)nc1 (stereo not shown) [Compound 136, 6-chloro-1-(2,3-difluoro-4-methylphenyl)-7-fluoro-2-(5-methylpyrimidin-2-yl)-2,3,4,9-tetrahydro-1H-pyrido[3,4-b]indole] | 7.5 nM
Cc1cc(C(F)(F)F)nc(N2CCc3c([nH]c4ccc(Cl)cc34)[C@H]2c2ccc(C)c(F)c2F)n1 [Compound 204, (1R)-6-chloro-1-(2,3-difluoro-4-methylphenyl)-2-[4-methyl-6-(trifluoromethyl)pyrimidin-2-yl]-2,3,4,9-tetrahydro-1H-pyrido[3,4-b]indole] | 39.8 nM
Cc1ccc(C2c3[nH]c4ccc(Cl)cc4c3CCN2c2nccc(C#N)n2)cc1 (stereo not shown) [Compound 378, 2-[6-chloro-1-(4-methylphenyl)-1,3,4,9-tetrahydro-2H-pyrido[3,4-b]indol-2-yl]pyrimidine-4-carbonitrile] | 7 nM
COc1ccc(C2c3[nH]c4cc(F)c(Cl)cc4c3CCN2c2ncc(F)cn2)cn1 (stereo not shown) [Compound 8, 6-chloro-7-fluoro-2-(5-fluoropyrimidin-2-yl)-1-(6-methoxypyridin-3-yl)-2,3,4,9-tetrahydro-1H-pyrido[3,4-b]indole] | 34.8 nM
Fc1ccc(C2c3[nH]c4ccc(Cl)cc4c3CCN2c2nccc(C(F)(F)F)n2)cc1 (stereo not shown) [Compound 422, 6-chloro-1-(4-fluorophenyl)-2-[4-(trifluoromethyl)pyrimidin-2-yl]-2,3,4,9-tetrahydro-1H-pyrido[3,4-b]indole] | 7.1 nM
Fc1c(Cl)ccc2[nH]c3c(c12)CCN(c1nccc(C(F)(F)F)n1)C3c1ccc(C(F)(F)F)cc1 (stereo not shown) [Compound 74, 6-chloro-5-fluoro-1-[4-(trifluoromethyl)phenyl]-2-[4-(trifluoromethyl)pyrimidin-2-yl]-2,3,4,9-tetrahydro-1H-pyrido[3,4-b]indole] | 5.7 nM
CN(C)c1ccc(C2c3[nH]c4cc(F)c(Cl)cc4c3CCN2c2nccc(C(F)(F)F)n2)c(F)c1F (stereo not shown) [Compound 173, 4-{6-chloro-7-fluoro-2-[4-(trifluoromethyl)pyrimidin-2-yl]-2,3,4,9-tetrahydro-1H-pyrido[3,4-b]indol-1-yl}-2,3-difluoro-N,N-dimethylaniline] | 8.6 nM
Oc1cc(Cl)ccc1C1c2[nH]c3ccc(Cl)cc3c2CCN1c1ncc(F)cn1 (stereo not shown) [Compound 221, 5-chloro-2-[6-chloro-2-(5-fluoropyrimidin-2-yl)-2,3,4,9-tetrahydro-1H-pyrido[3,4-b]indol-1-yl]phenol] | 4.2 nM
Cc1nc(C)nc(N2CCc3c([nH]c4c(N)cc(Cl)cc34)C2c2ccc(N3CCOCC3)nc2)n1 (stereo not shown) [Compound 321, 6-chloro-2-(4,6-dimethyl-1,3,5-triazin-2-yl)-1-[6-(morpholin-4-yl)pyridin-3-yl]-2,3,4,9-tetrahydro-1H-pyrido[3,4-b]indol-8-amine] | 7 nM
C=Cc1ccc(C2c3[nH]c4cc(F)c(Cl)cc4c3CCN2c2ncc(F)cn2)cc1 (stereo not shown) [Compound 79, 6-chloro-1-(4-ethenylphenyl)-7-fluoro-2-(5-fluoropyrimidin-2-yl)-2,3,4,9-tetrahydro-1H-pyrido[3,4-b]indole] | 20.7 nM
Cc1cc(Cl)nc(N2CCc3c([nH]c4cc(F)c(Cl)cc34)C2c2ccc(F)cc2)n1 (stereo not shown) [Compound 46, 6-chloro-2-(4-chloro-6-methylpyrimidin-2-yl)-7-fluoro-1-(4-fluorophenyl)-2,3,4,9-tetrahydro-1H-pyrido[3,4-b]indole] | 6.5 nM
Cc1nc(N2CCc3c([nH]c4ccc(Cl)cc34)C2c2cnc(N3CCOCC3)nc2)nc(C)c1F (stereo not shown) [Compound 368, 6-chloro-2-(5-fluoro-4,6-dimethylpyrimidin-2-yl)-1-[2-(morpholin-4-yl)pyrimidin-5-yl]-2,3,4,9-tetrahydro-1H-pyrido[3,4-b]indole] | 7.9 nM
Cc1ccc(C2c3[nH]c4ccc(Cl)cc4c3CCN2c2nccc(-c3ccccc3)n2)c(F)c1F (stereo not shown) [Compound 469, 6-chloro-1-(2,3-difluoro-4-methylphenyl)-2-(4-phenylpyrimidin-2-yl)-2,3,4,9-tetrahydro-1H-pyrido[3,4-b]indole] | 4 nM
FC(F)(F)c1ccnc(N2CCc3c([nH]c4ccc(Cl)cc34)C2c2cnc(N3CC4(COC4)C3)nc2)n1 (stereo not shown) [Compound 391, 6-chloro-1-[2-(2-oxa-6-azaspiro[3.3]heptan-6-yl)pyrimidin-5-yl]-2-[4-(trifluoromethyl)pyrimidin-2-yl]-2,3,4,9-tetrahydro-1H-pyrido[3,4-b]indole] | 5.7 nM
Fc1ccc(C2c3[nH]c4cc(F)c(Cl)cc4c3CCN2c2ncc(Cl)cn2)cc1 (stereo not shown) [Compound 4, 6-chloro-2-(5-chloropyrimidin-2-yl)-7-fluoro-1-(4-fluorophenyl)-2,3,4,9-tetrahydro-1H-pyrido[3,4-b]indole] | 59.7 nM
Cc1nc(N2CCc3c([nH]c4cc(F)c(Cl)cc34)C2c2cccc(F)c2F)ncc1F (stereo not shown) [Compound 124, 6-chloro-1-(2,3-difluorophenyl)-7-fluoro-2-(5-fluoro-4-methylpyrimidin-2-yl)-2,3,4,9-tetrahydro-1H-pyrido[3,4-b]indole] | 8.6 nM
Cc1ccnc(N2CCc3c([nH]c4ccc(Cl)cc34)C2c2cnc(N3CCOCC3)nc2)n1 (stereo not shown) [Compound 312, 6-chloro-2-(4-methylpyrimidin-2-yl)-1-[2-(morpholin-4-yl)pyrimidin-5-yl]-2,3,4,9-tetrahydro-1H-pyrido[3,4-b]indole] | 7.4 nM
Cc1ccc([C@H]2c3[nH]c4ccc(Cl)cc4c3CCN2c2nc(N(C)C)nc(C(F)(F)F)n2)cc1 [Compound 441, 4-[(1S)-6-chloro-1-(4-methylphenyl)-1,3,4,9-tetrahydro-2H-pyrido[3,4-b]indol-2-yl]-N,N-dimethyl-6-(trifluoromethyl)-1,3,5-triazin-2-amine] | 5.7 nM
Cc1nc(C)nc(N2CCc3c([nH]c4c(N)cc(Cl)cc34)C2c2ccc(C)c(F)c2F)n1 (stereo not shown) [Compound 304, 6-chloro-1-(2,3-difluoro-4-methylphenyl)-2-(4,6-dimethyl-1,3,5-triazin-2-yl)-2,3,4,9-tetrahydro-1H-pyrido[3,4-b]indol-8-amine] | 93.9 nM
Cc1nc(C)nc(N2CCc3c([nH]c4ccc(Cl)cc34)C2c2ccc(N3C[C@H]4C[C@@H]3CO4)nc2)n1 (stereo partly drawn) [Compound 376, 6-chloro-2-(4,6-dimethyl-1,3,5-triazin-2-yl)-1-{6-[(1R,4R)-2-oxa-5-azabicyclo[2.2.1]heptan-5-yl]pyridin-3-yl}-2,3,4,9-tetrahydro-1H-pyrido[3,4-b]indole] | 33.2 nM

Compounds with a lower IC50, results first:

IC50 | Compound
1 nM | Cc1ccc([C@H]2c3[nH]c4ccc(Cl)cc4c3CCN2c2nc(C)c(F)c(C)n2)c(F)c1F [Compound 412, (1S)-6-chloro-1-(2,3-difluoro-4-methylphenyl)-2-(5-fluoro-4,6-dimethylpyrimidin-2-yl)-2,3,4,9-tetrahydro-1H-pyrido[3,4-b]indole]
1.2 nM | Cc1ccc(C2c3[nH]c4cc(F)c(Cl)cc4c3CCN2c2nc(C)c(F)c(C)n2)c(F)c1F (stereo not shown) [Compound 143, 6-chloro-1-(2,3-difluoro-4-methylphenyl)-7-fluoro-2-(5-fluoro-4,6-dimethylpyrimidin-2-yl)-2,3,4,9-tetrahydro-1H-pyrido[3,4-b]indole]
1.3 nM | Cc1cc(C(F)(F)F)nc(N2CCc3c([nH]c4cc(F)c(Cl)cc34)C2c2cccc(F)c2F)n1 (stereo not shown) [Compound 147, 6-chloro-1-(2,3-difluorophenyl)-7-fluoro-2-[4-methyl-6-(trifluoromethyl)pyrimidin-2-yl]-2,3,4,9-tetrahydro-1H-pyrido[3,4-b]indole]
0.2 nM | Fc1cc(Br)ccc1C1c2[nH]c3ccc(Cl)cc3c2CCN1c1nccc(C(F)(F)F)n1 (stereo not shown) [Compound 268, 1-(4-bromo-2-fluorophenyl)-6-chloro-2-[4-(trifluoromethyl)pyrimidin-2-yl]-2,3,4,9-tetrahydro-1H-pyrido[3,4-b]indole]
1.5 nM | Cc1ccc(C2c3[nH]c4ccc(Cl)cc4c3CCN2c2ncc(F)c(C)n2)c(F)c1F (stereo not shown) [Compound 235, 6-chloro-1-(2,3-difluoro-4-methylphenyl)-2-(5-fluoro-4-methylpyrimidin-2-yl)-2,3,4,9-tetrahydro-1H-pyrido[3,4-b]indole]
2.1 nM | Cc1cc(C)nc(N2CCc3c([nH]c4cc(F)c(Cl)cc34)C2c2ccc(C)c(F)c2F)n1 (stereo not shown) [Compound 132, 6-chloro-1-(2,3-difluoro-4-methylphenyl)-2-(4,6-dimethylpyrimidin-2-yl)-7-fluoro-2,3,4,9-tetrahydro-1H-pyrido[3,4-b]indole]
1.3 nM | Cc1ccc(C2c3[nH]c4ccc(Cl)cc4c3CCN2c2nccc(C(F)(F)F)n2)c(O)c1 (stereo not shown) [Compound 257, 2-{6-chloro-2-[4-(trifluoromethyl)pyrimidin-2-yl]-2,3,4,9-tetrahydro-1H-pyrido[3,4-b]indol-1-yl}-5-methylphenol]
1.2 nM | COCCOc1ncc(C2c3[nH]c4ccc(Cl)cc4c3CCN2c2nc(C(F)(F)F)nc(C(F)(F)F)n2)cn1 (stereo not shown) [Compound 536, 2-[4,6-bis(trifluoromethyl)-1,3,5-triazin-2-yl]-6-chloro-1-[2-(2-methoxyethoxy)pyrimidin-5-yl]-2,3,4,9-tetrahydro-1H-pyrido[3,4-b]indole]
1.2 nM | Cc1ccc([C@H]2c3[nH]c4ccc(Cl)cc4c3CCN2c2nccc(C(F)(F)F)n2)cc1 [Compound 161, (1S)-6-chloro-1-(4-methylphenyl)-2-[4-(trifluoromethyl)pyrimidin-2-yl]-2,3,4,9-tetrahydro-1H-pyrido[3,4-b]indole]
2 nM | Cc1nc(N2CCc3c([nH]c4ccc(Cl)cc34)[C@@H]2c2ccc(N3CCOCC3)nc2)nc(C#N)c1F [Compound 424, 2-{(1S)-6-chloro-1-[6-(morpholin-4-yl)pyridin-3-yl]-1,3,4,9-tetrahydro-2H-pyrido[3,4-b]indol-2-yl}-5-fluoro-6-methylpyrimidine-4-carbonitrile]

Source: US20250186437A1, “CARBOLINE COMPOUNDS AND USE THEREOF” (PTC Therapeutics, Inc., priority 2021, published 2025)
